{
  "source": "patent US20050277626A1",
  "about": "“Methods and compositions for treatment of nicotine dependence and dementias” (priority 2004, published 2005)",
  "origin": "cited, not measured here",
  "key": {"[1]": {"details": "400 mg per day"}, "[2]": {"details": "schizophrenic patients"}},
  "data": [
    {"molecule": "O=C(NCCN1CCOCC1)c1ccc(Cl)cc1", "note": "[moclobemide]", "values": [
      {"measurement": "efficacy for smoking cessation", "setting": "[1]", "value": "demonstrated efficacy"}
    ]},
    {"molecule": "COc1ccc2c3c1O[C@H]1C[C@@H](O)C=C[C@@]31CCN(C)C2", "note": "[galantamine]", "values": [
      {"measurement": "apoptosis induced by beta-amyloid and thapsigargin", "setting": "neuroblastoma cell lines", "value": "inhibit apoptosis induced by beta-amyloid and thapsigargin in a concentration dependent manner"}
    ]},
    {"molecule": "COc1cc2c(cc1OC)C(=O)C(CC1CCN(Cc3ccccc3)CC1)C2", "note": "(stereo not shown) [donepazil]", "values": [
      {"measurement": "cognitive effect, blinded placebo controlled study", "setting": "[2]", "value": "no effect"},
      {"measurement": "cognitive effect, open label studies", "setting": "[2]", "value": "modest cognitive improvements"}
    ]}
  ]
}
